# Experiments:
# [1] = Encapsulation efficiency (% EE), ribogreen; assay type: physicochemical; details: nanoparticles, compound:DSPC:cholesterol:PEG 2 50:10:38:2 mol %
# Source text: The efficiency of encapsulation of a therapeutic and/or prophylactic describes the amount of therapeutic and/or prophylactic that is encapsulated or otherwise associated with a lipid nanoparticle (e.g., an empty LNP or a loaded LNP) after preparation, relative to the initial amount provided. The encapsulation efficiency is desirably high (e.g., close to 100%). The encapsulation efficiency may be measured, for example, by comparing the amount of therapeutic and/or prophylactic in a solution containing the lipid nanoparticle (e.g., an empty LNP or a loaded LNP) before and after breaking up the lipid nanoparticle (e.g., an empty LNP or a loaded LNP) with one or more organic solvents or detergents. Fluorescence may be used to measure the amount of free therapeutic and/or prophylactic (e.g., RNA) in a solution.
# (§1) Nanoparticle compositions including a therapeutic and/or prophylactic can be optimized according to the selection of a compound according to Formula (I), (I-1), (A), (A-1), (A-1a), or (A-1b), the selection of additional lipids, the amount of each lipid in the lipid component, and the wt:wt ratio of the lipid component to the therapeutic and/or prophylactic. Nanoparticle compositions including DSPC as a phospholipid, cholesterol as a structural lipid, PEG 2 as a PEG lipid, and a compound according to Formula (I), (I-1), (A), (A-1), (A-1a), or (A-1b) were prepared. The ratios of the lipids were 50:10:38:2 mol % for the lipid according to Formula (I), (I-1), (A), (A-1), (A-1a), or (A-1b):DSPC:cholesterol:PEG 2. […]
# [2] = Size and polydispersity index of nanoparticles comprising compounds of the disclosure; assay type: physicochemical; details: compound:DSPC:cholesterol:PEG 2 50:10:38:2 mol %
# Source text: Lipid nanoparticles (e.g., empty LNPs or loaded LNPs) may be characterized by a variety of methods. For example, microscopy (e.g., transmission electron microscopy or scanning electron microscopy) may be used to examine the morphology and size distribution of a nanoparticle composition. Dynamic light scattering or potentiometry (e.g., potentiometric titrations) may be used to measure zeta potentials. Dynamic light scattering may also be utilized to determine particle sizes. Instruments such as the Zetasizer Nano ZS (Malvern Instruments Ltd, Malvern, Worcestershire, UK) may also be used to measure multiple characteristics of a nanoparticle composition, such as particle size, polydispersity index, and zeta potential.
# as §1
# hEPO mRNA = experiment: hEPO expression in CD1-mice after intravenous administration of nanoparticles; assay type: in vivo; details: 6 h after intravenous administration, mRNA dose 0.5 mg/kg, N:P 3.4, compound:DSPC:cholesterol:PEG 2 50:10:38:2
# Experimental: The expression of hEPO mRNA in CD1-mice was measured 6 h after intravenous administration of nanoparticles comprising a compound of the disclosure, DSPC, cholesterol, and PEG 2 in a ratio of 50:10:38:2. […] Each composition was dosed to 8 animals at an mRNA dose of 0.5 mg/kg.
# [3] = Heparin-sepharose binding of nanoparticles
# [4] = Apparent LNP pKa by 2-(p-toluidino)-6-napthalene sulfonic acid (TNS) assay; assay type: physicochemical; details: pH at half of maximum fluorescence
Structure (SMILES),% EE (ribogreen) [1] [%],PDI [2],Size (nm) [2] [nm],Avg. [hEPO] mIU/mL (hEPO mRNA) [mIU/mL],Relative % Area Bound by LNP [3] [%],LogIC50 (pKa) [4]
"CCCCCCCCC(CC)OC(=O)CCCCCCCN(CCCCCCCC(=O)OC(CCCCCCCC)CCCCCCCC)CCCNC1=NS(=O)(=O)N=C1NC (stereo not drawn) [Compound 2, Heptadecan-9-yl 8-((3-((4-(methylamino)-1,1-dioxido-1,2,5-thiadiazol-3-yl)amino)propyl)(8-oxo-8-(undecan-3-yloxy)octyl)amino)octanoate]",95.1,0.104,60.8,6.57E+04,21.86,7.65
"CCCCCCCCC(CC)OC(=O)CCCCCCCN(CCCCCCCC(=O)OC(CCCCCCCC)CCCCCCCC)CCCNc1c(Cl)c(=O)n(C)n(C)c1=O (stereo not drawn) [Compound 6, Heptadecan-9-yl 8-((3-((5-chloro-1,2-dimethyl-3,6-dioxo-1,2,3,6-tetrahydropyridazin-4-yl)amino)propyl)(8-oxo-8-(undecan-3-yloxy)octyl)amino)octanoate]",97.9,0.088,68.4,8.12E+04,0,6.00
"CCCCCCCCC(CC)OC(=O)CCCCCCCN(CCCCCCCC(=O)OC(CCCCCCCC)CCCCCCCC)CCCNC(=O)C(=O)NC (stereo not drawn) [Compound 12, Heptadecan-9-yl 8-((3-(2-(methylamino)-2-oxoacetamido)propyl)(8-oxo-8-(undecan-3-yloxy)octyl)amino)octanoate]",85.0,0.139,78.9,2.29E+05,1.43,6.13
"CCCCCCCCC(CC)OC(=O)CCCCCCCN(CCCCCCCC(=O)OC(CCCCCCCC)CCCCCCCC)CCCNC(C(N)=O)C(N)=O (stereo not drawn) [Compound 14, Heptadecan-9-yl 8-((3-((1,3-diamino-1,3-dioxopropan-2-yl)amino)propyl)(8-oxo-8-(undecan-3-yloxy)octyl)amino)octanoate]",98.9,0.167,91.2,6.20E+04,69.04,7.20
"CCCCCCCCC(CC)OC(=O)CCCCCCCN(CCCCCCCC(=O)OC(CCCCCCCC)CCCCCCCC)CCCNC(=O)CC(=O)NC (stereo not drawn) [Compound 17, Heptadecan-9-yl 8-({3-[2-(methylcarbamoyl)acetamido]propyl}[8-oxo-8-(undecan-3-yloxy)octyl]amino)octanoate]",98.4,0.178,80.8,7.95E+04,37.96,7.23
"CCCCCCCCC(CC)OC(=O)CCCCCCCN(CCCCCCCC(=O)OC(CCCCCCCC)CCCCCCCC)CCCNc1cc[nH]c(=O)n1 (stereo not drawn) [Compound 21, Heptadecan-9-yl 8-((3-((2-oxo-1,2-dihydropyrimidin-4-yl)amino)propyl)(8-oxo-8-(undecan-3-yloxy)octyl)amino)octanoate]",99.4,0.141,62.5,7.04E+04,50.19,7.59
"CCCCCCCCC(CC)OC(=O)CCCCCCCN(CCCCCCCC(=O)OC(CCCCCCCC)CCCCCCCC)CCCNc1cc(=O)[nH]c(=O)[nH]1 (stereo not drawn) [Compound 24, Heptadecan-9-yl 8-((3-((2,6-dioxo-1,2,3,6-tetrahydropyrimidin-4-yl)amino)propyl)(8-oxo-8-(undecan-3-yloxy)octyl)amino)octanoate]",98.8,0.114,60.8,2.05E+05,0,6.56
CCCCCCCCC(CC)OC(=O)CCCCCCCN(CCCCCCCC(=O)OC(CCCCCCCC)CCCCCCCC)CCCN/C=C1/NC(=O)NC1=O (stereo not drawn) [Compound 52],98.2,0.22,53.7,–,–,–

# Source: patent publication US20230000773A1, “NOVEL HEADGROUP LIPID COMPOUNDS AND COMPOSITIONS FOR INTRACELLULAR DELIVERY OF THERAPEUTIC AGENTS” (ModernaTX, Inc., priority 2019, published 2023)
